What was measured:
Magnaporthe grisea = type: in vivo; settings: rice (Nihonbare), flowable formulation 500 ppm foliage application; five days after the inoculation
Plasmopara viticola = assay: Treating grape downy mildew, foliage application; type: in vivo; settings: grape (Berry-A), infected nursery plants, flowable formulation 500 ppm foliage application after inoculation (curative)
Procedure: Test Regarding Effects of Treating Grape Downy Mildew (Plasmopara viticola)
A plastic pot was filled with sandy soil, and grape (variety: Berry-A) was then disseminated. The grape plants were allowed to grow in a green house for 40 days. A water suspension of zoosporangium of Plasmopara viticola was inoculated to the aforementioned pot by spaying it. Thereafter, the grape plants were left at 23° C. at a high humidity for 1 day, and they were then air-dried, so as to obtain grape downy mildew-infected nursery plants. The aforementioned flowable formulation comprising compound 189 was set at a predetermine concentration (500 ppm) by diluting with water, and it was then subjected to foliage application such that it could be sufficiently attached to the leaves of the aforementioned nursery grape plants. After completion of the foliage application, the plants were subjected to air-drying, and they were then left at 23° C. in a green house for 5 days. Thereafter, the plants were further left at 23° C. at a high humidity for 1 day. Thereafter, the infected areas thereof were examined.

Structure (SMILES) | infected areas of treated plants relative to infected areas of untreated plants (Magnaporthe grisea) | infected areas of treated plants relative to infected areas of untreated plants (Plasmopara viticola)
O=C(NCc1ccc(OC(F)F)cc1)c1ccc2ncccc2c1 [Compound 56] | ≤ 30% | 
Cc1ccc(CNC(=O)c2ccc3ncsc3c2)cc1 [Compound 189] |  | ≤ 10%
